Experiments:
L1 wild-type C. elegans = test: whole plant or invertebrate; settings: Caenorhabditis elegans, 15 h, read-out: C. elegans KCN Survival Assay LC50
[1] = test system: anthelmintic/nematicide-resistant C. elegans mutant strains; test: microbe, parasite or virus in culture
Excerpt: In addition to the Caenorhabditis elegans wild-type N2 strain, this work included the following C. elegans strains: CB1003 (kynu-1(e1003) X); anthelmintic-resistant strains—CB3474 (ben-1(e1880) III), CB193 (unc-29(e193) I), HY496 (bre-1(ye4) IV), RB2119 (acr-23(ok2804) V), JD608 (avr-14(ad1302) I; avr-15(ad1051) V; glc-1 (pk54) V), NM1968 (slo-1(js379) V), RP2635 (mev-1(tr355) III); benzimidazole-resistant CRISPR strains—ECA882 (ben-1(ean64) III), ECA917 (ben-1(ean98) III), ECA1075 (ben-1(ean143) III), ECA1080 (ben-1(ean148) III). This work also featured several additional free-living nematode strains: C. briggsae strain AF16, P. pacificus strain PS312, and P. hermaphrodita strain B178. The four CRISPR-generated benzimidazole-resistant C. elegans mutants were generously provided by Prof. Erik Andersen (Johns Hopkins University); PS312 and B178 were generously provided by Prof. Peter Roy (University of Toronto); all other strains were obtained from the Caenorhabditis Genetics Center (CGC, University of Minnesota). All strains were cultured and propagated at 20 °C on NGM (nematode growth medium) agar plates seeded with E. coli OP50 (Stiernagle, 2006)[56].
Liquid development and viability assays were adapted from a previously established chemical screening protocol (Burns et al.)[24]. In brief, a saturated culture of E. coli HB101 was concentrated 2-fold in liquid NGM and 40 μL of this suspension was distributed to each well of a 96-well flat-bottom culture plate. 0.5 μL chemical solution (or DMSO alone) was added to each well (1% DMSO v/v) using either a multi-channel pipette or a pinning tool (V&P Scientific). L1 worms synchronized from an embryo preparation performed the day prior were diluted to a concentration of ~2 worms/μL in M9 buffer; 10 μL worm suspension was then added to each well. Culture plates were sealed with parafilm and placed in a plastic container lined with wet paper towels to prevent evaporation. Containers were then incubated for 6 days at 20 °C with shaking at 165 rpm. Following incubation, 300 μL M9 was added to each well to decrease the turbidity of the HB101-NGM suspension. Single images of each microplate well were then taken on a Nikon Ti Eclipse inverted microscope (Nikon NIS Elements AR). Images were processed using Python scripts to isolate worm-associated pixels from background. Scores of worm development and viability were determined as the sum of worm-associated pixels in each well. Development/viability scores for each well were divided by the development /viability scores for the corresponding DMSO controls, resulting in a relative viability value for each chemical. At least three biological replicates were performed for each dose-response experiment; relative viability values were averaged across replicates.
Supplementary Table 2. Sensitivity of anthelmintic/nematicide-resistant strains to Class A, B, and C
benzimidazole complex I inhibitors.
LC50s were estimated from fitted dose-
response curves; all dose response data are the mean of at least three biological replicates.
Supplementary Table 2. Davie et al.

Structure (SMILES): COc1cc2c(cc1OC)C(c1ccc(-c3ccc(Cl)c(Cl)c3)o1)=NCC2 [NPD3577]
- LC50 (L1 wild-type C. elegans): 16 µM

Structure (SMILES): COC(=O)Nc1nc2ccc(Sc3ccccc3)cc2[nH]1 [fenbendazole, reference compound]
- C. elegans L1 relative development & viability (score 0-1 relative to DMSO controls) ([1]; 1 µM, strain CB3474, G104D (ben-1)): 1.000
- C. elegans L1 relative development & viability (score 0-1 relative to DMSO controls) ([1]; 1 µM, strain ECA917, F200Y (ben-1)): 1.000
- C. elegans L1 relative development & viability (score 0-1 relative to DMSO controls) ([1]; 1 µM, strain ECA1075, F167Y (ben-1)): 1.000
- C. elegans L1 relative development & viability (score 0-1 relative to DMSO controls) ([1]; 1 µM, strain ECA1080, E198A (ben-1)): 1.000
- C. elegans L1 relative development & viability (score 0-1 relative to DMSO controls) ([1]; 2 µM, strain CB3474, G104D (ben-1)): 1.000
- C. elegans L1 relative development & viability (score 0-1 relative to DMSO controls) ([1]; 2 µM, strain ECA917, F200Y (ben-1)): 1.000
- C. elegans L1 relative development & viability (score 0-1 relative to DMSO controls) ([1]; 2 µM, strain ECA1075, F167Y (ben-1)): 1.000
- C. elegans L1 relative development & viability (score 0-1 relative to DMSO controls) ([1]; 2 µM, strain ECA1080, E198A (ben-1)): 1.000
- C. elegans L1 relative development & viability (score 0-1 relative to DMSO controls) ([1]; 3.9 µM, strain CB3474, G104D (ben-1)): 1.000
- C. elegans L1 relative development & viability (score 0-1 relative to DMSO controls) ([1]; 3.9 µM, strain ECA917, F200Y (ben-1)): 1.000
- C. elegans L1 relative development & viability (score 0-1 relative to DMSO controls) ([1]; 3.9 µM, strain ECA1075, F167Y (ben-1)): 1.000
- C. elegans L1 relative development & viability (score 0-1 relative to DMSO controls) ([1]; 3.9 µM, strain ECA1080, E198A (ben-1)): 1.000
- C. elegans L1 relative development & viability (score 0-1 relative to DMSO controls) ([1]; 15.6 µM, strain CB3474, G104D (ben-1)): 1.000
- C. elegans L1 relative development & viability (score 0-1 relative to DMSO controls) ([1]; 15.6 µM, strain ECA917, F200Y (ben-1)): 1.000
- C. elegans L1 relative development & viability (score 0-1 relative to DMSO controls) ([1]; 15.6 µM, strain ECA1075, F167Y (ben-1)): 1.000
- C. elegans L1 relative development & viability (score 0-1 relative to DMSO controls) ([1]; 15.6 µM, strain ECA1080, E198A (ben-1)): 0.957
- C. elegans L1 relative development & viability (score 0-1 relative to DMSO controls) ([1]; 31.3 µM, strain CB3474, G104D (ben-1)): 1.000
- C. elegans L1 relative development & viability (score 0-1 relative to DMSO controls) ([1]; 31.3 µM, strain ECA917, F200Y (ben-1)): 1.000
- C. elegans L1 relative development & viability (score 0-1 relative to DMSO controls) ([1]; 31.3 µM, strain ECA1075, F167Y (ben-1)): 1.000
- C. elegans L1 relative development & viability (score 0-1 relative to DMSO controls) ([1]; 31.3 µM, strain ECA1080, E198A (ben-1)): 1.000
- C. elegans L1 relative development & viability (score 0-1 relative to DMSO controls) ([1]; 62.5 µM, strain CB3474, G104D (ben-1)): 0.845
- C. elegans L1 relative development & viability (score 0-1 relative to DMSO controls) ([1]; 62.5 µM, strain ECA917, F200Y (ben-1)): 1.000
- C. elegans L1 relative development & viability (score 0-1 relative to DMSO controls) ([1]; 62.5 µM, strain ECA1075, F167Y (ben-1)): 0.934
- C. elegans L1 relative development & viability (score 0-1 relative to DMSO controls) ([1]; 62.5 µM, strain ECA1080, E198A (ben-1)): 1.000
- C. elegans L1 relative development & viability (score 0-1 relative to DMSO controls) ([1]; 125 µM, strain CB3474, G104D (ben-1)): 0.790
- C. elegans L1 relative development & viability (score 0-1 relative to DMSO controls) ([1]; 125 µM, strain ECA917, F200Y (ben-1)): 0.784
- C. elegans L1 relative development & viability (score 0-1 relative to DMSO controls) ([1]; 125 µM, strain ECA1075, F167Y (ben-1)): 0.665
- C. elegans L1 relative development & viability (score 0-1 relative to DMSO controls) ([1]; 125 µM, strain ECA1080, E198A (ben-1)): 0.759
- C. elegans L1 relative development & viability (score 0-1 relative to DMSO controls) ([1]; 250 µM, strain CB3474, G104D (ben-1)): 0.720
- C. elegans L1 relative development & viability (score 0-1 relative to DMSO controls) ([1]; 250 µM, strain ECA917, F200Y (ben-1)): 0.835
- C. elegans L1 relative development & viability (score 0-1 relative to DMSO controls) ([1]; 250 µM, strain ECA1075, F167Y (ben-1)): 0.796
- C. elegans L1 relative development & viability (score 0-1 relative to DMSO controls) ([1]; 250 µM, strain ECA1080, E198A (ben-1)): 0.686
- C. elegans L1 relative development & viability (score 0-1 relative to DMSO controls) ([1]; 500 µM, strain CB3474, G104D (ben-1)): 0.538
- C. elegans L1 relative development & viability (score 0-1 relative to DMSO controls) ([1]; 500 µM, strain ECA917, F200Y (ben-1)): 0.716
- C. elegans L1 relative development & viability (score 0-1 relative to DMSO controls) ([1]; 500 µM, strain ECA1075, F167Y (ben-1)): 0.599
- C. elegans L1 relative development & viability (score 0-1 relative to DMSO controls) ([1]; 500 µM, strain ECA1080, E198A (ben-1)): 0.597
- C. elegans L1 relative development & viability ([1]; CB3474 G104D (ben-1), 1 µM, score 0-1 relative to DMSO, values >1 set to 1): 1.000
- C. elegans L1 relative development & viability ([1]; CB3474 G104D (ben-1), 2 µM, score 0-1 relative to DMSO, values >1 set to 1): 1.000
- C. elegans L1 relative development & viability ([1]; CB3474 G104D (ben-1), 3.9 µM, score 0-1 relative to DMSO, values >1 set to 1): 1.000
- C. elegans L1 relative development & viability ([1]; CB3474 G104D (ben-1), 15.6 µM, score 0-1 relative to DMSO, values >1 set to 1): 1.000
- C. elegans L1 relative development & viability ([1]; CB3474 G104D (ben-1), 31.3 µM, score 0-1 relative to DMSO, values >1 set to 1): 1.000
- C. elegans L1 relative development & viability ([1]; CB3474 G104D (ben-1), 62.5 µM, […]): 0.845
- C. elegans L1 relative development & viability ([1]; CB3474 G104D (ben-1), 125 µM, […]): 0.790
- C. elegans L1 relative development & viability ([1]; CB3474 G104D (ben-1), 250 µM, […]): 0.720
- C. elegans L1 relative development & viability ([1]; CB3474 G104D (ben-1), 500 µM, […]): 0.538
- C. elegans L1 relative development & viability ([1]; ECA917 F200Y (ben-1), 1 µM, score 0-1 relative to DMSO, values >1 set to 1): 1.000
- C. elegans L1 relative development & viability ([1]; ECA917 F200Y (ben-1), 2 µM, score 0-1 relative to DMSO, values >1 set to 1): 1.000
- C. elegans L1 relative development & viability ([1]; ECA917 F200Y (ben-1), 3.9 µM, score 0-1 relative to DMSO, values >1 set to 1): 1.000
- C. elegans L1 relative development & viability ([1]; ECA917 F200Y (ben-1), 15.6 µM, score 0-1 relative to DMSO, values >1 set to 1): 1.000
- C. elegans L1 relative development & viability ([1]; ECA917 F200Y (ben-1), 31.3 µM, score 0-1 relative to DMSO, values >1 set to 1): 1.000
- C. elegans L1 relative development & viability ([1]; ECA917 F200Y (ben-1), 62.5 µM, score 0-1 relative to DMSO, values >1 set to 1): 1.000
- C. elegans L1 relative development & viability ([1]; ECA917 F200Y (ben-1), 125 µM, […]): 0.784
- C. elegans L1 relative development & viability ([1]; ECA917 F200Y (ben-1), 250 µM, […]): 0.835
- C. elegans L1 relative development & viability ([1]; ECA917 F200Y (ben-1), 500 µM, […]): 0.716
- C. elegans L1 relative development & viability ([1]; ECA1075 F167Y (ben-1), 1 µM, score 0-1 relative to DMSO, values >1 set to 1): 1.000
- C. elegans L1 relative development & viability ([1]; ECA1075 F167Y (ben-1), 2 µM, score 0-1 relative to DMSO, values >1 set to 1): 1.000
- C. elegans L1 relative development & viability ([1]; ECA1075 F167Y (ben-1), 3.9 µM, score 0-1 relative to DMSO, values >1 set to 1): 1.000
- C. elegans L1 relative development & viability ([1]; ECA1075 F167Y (ben-1), 15.6 µM, score 0-1 relative to DMSO, values >1 set to 1): 1.000
- C. elegans L1 relative development & viability ([1]; ECA1075 F167Y (ben-1), 31.3 µM, score 0-1 relative to DMSO, values >1 set to 1): 1.000
- C. elegans L1 relative development & viability ([1]; ECA1075 F167Y (ben-1), 62.5 µM, […]): 0.934
- C. elegans L1 relative development & viability ([1]; ECA1075 F167Y (ben-1), 125 µM, […]): 0.665
- C. elegans L1 relative development & viability ([1]; ECA1075 F167Y (ben-1), 250 µM, […]): 0.796
- C. elegans L1 relative development & viability ([1]; ECA1075 F167Y (ben-1), 500 µM, […]): 0.599
- C. elegans L1 relative development & viability ([1]; ECA1080 E198A (ben-1), 1 µM, score 0-1 relative to DMSO, values >1 set to 1): 1.000
- C. elegans L1 relative development & viability ([1]; ECA1080 E198A (ben-1), 2 µM, score 0-1 relative to DMSO, values >1 set to 1): 1.000
- C. elegans L1 relative development & viability ([1]; ECA1080 E198A (ben-1), 3.9 µM, score 0-1 relative to DMSO, values >1 set to 1): 1.000
- C. elegans L1 relative development & viability ([1]; ECA1080 E198A (ben-1), 15.6 µM, […]): 0.957
- C. elegans L1 relative development & viability ([1]; ECA1080 E198A (ben-1), 31.3 µM, score 0-1 relative to DMSO, values >1 set to 1): 1.000
- C. elegans L1 relative development & viability ([1]; ECA1080 E198A (ben-1), 62.5 µM, score 0-1 relative to DMSO, values >1 set to 1): 1.000
- C. elegans L1 relative development & viability ([1]; ECA1080 E198A (ben-1), 125 µM, […]): 0.759
- C. elegans L1 relative development & viability ([1]; ECA1080 E198A (ben-1), 250 µM, […]): 0.686
- C. elegans L1 relative development & viability ([1]; ECA1080 E198A (ben-1), 500 µM, […]): 0.597
